Counter-ions that a name gives are not always drawn.
Tests used:
[1] = Test of stability in liver microsomes; type: in vitro ADME, mouse; settings: Mice liver microsomes, 1 µM, 37°C, NADPH
Procedure: (§1) In this experiment, liver microsomes of three species, including monkey, rat and mouse, were used as in vitro models to evaluate the metabolic stability of the test compound.
(§2) At 37°C, 1 µM of the test compound was co-incubated with microsomal protein and coenzyme NADPH. At given time points of the reaction (5 min, 10 min, 20 min, 30 min, and 60 min), the reaction was terminated by adding ice-cold acetonitrile containing an internal standard. The LC-MS/MS method was used to measure the concentration of the test compound in the sample. T1/2 was calculated using the natural logarithm (In) of the residual rate of the drug in the incubation system and the incubation time. In addition, the intrinsic clearance in liver microsomes CLint(mic) and the intrinsic clearance in liver CLint(Liver) were further calculated.

[2] = Test of stability in liver microsomes; type: in vitro ADME; settings: Monkey liver microsomes, 1 µM, 37°C, NADPH
Procedure: as §1, §2

integrin α4β1 = assay: Integrin α4β1-mediated cell adhesion assay (Jurkat cells on VCAM); type: cell-based; settings: for α4β1/α4β7: selectivity ratio of Jurkat (α4β1)/VCAM-1 IC50 to RPMI-8866 (α4β7)/MadCAM-1 IC50; for IC50: Jurkat cells, VCAM coated plate, read-out: Jurkat (α4β1)/VCAM-1 IC50
Procedure: VCAM was formulated into a final concentration of 0.5 µg/ml with a coating buffer, 50 µl of the solution was transferred to a 96-well plate, and the plate was coated with same at 4°C overnight. The plate was washed with coating buffer three times, then 150 µl of a blocking solution (coating buffer containing 1% BSA) was added, and the plate was blocked at 37°C for 1 h. Jurkat cells were collected, washed twice using DPBS buffer, and then resuspended to 4 × 10^6 cells/ml with an action buffer. 50 µl of the cell suspension was transferred to a 96-well plate so that the cell density reached 2 × 10^5 cells/well. Then 1 µl of the test compound at different concentration or DMSO was added and the plate was incubated at 37°C for 1 h. The plate was washed with coating buffer to remove non-adherent cells. 50 µl of a substrate (4-nitrophenyl-N-acetyl-β-D-glucosaminide) was added and the plate was incubated at 37°C for 2 h. Finally, 90 µl of a termination solution (50 mM glycine and 5 mM EDTA, pH 10.4) was added. The OD value of the plate was read at 405 nm. • Coating buffer: DMEM+ 20 mM HEPES+ 0.4 mM MnCl2 • Action buffer: DMEM+ 20 mM HEPES+ 0.1% BSA+0.4 mM MnCl2 • DMEM: dulbecco's modified eagle medium; • HEPES: 2-[4-(2-hydroxyethyl)piperazin-1-yl]ethanesulfonic acid Table 1 Results of effects of compounds on α4β7- and α4β1-mediated cell adhesion

[3] = Pharmacokinetic test in mice; type: in vivo; settings: male BALB/c mice, plasma
Procedure: Experimental animals: male BALB/c mice, 20-25 g, 6 mice/compound. purchased from Chengdu Ddossy Experimental Animals Co., Ltd.
Experimental design: on the day of the test, 6 BALB/c mice were randomly grouped according to their body weights. The animals were fasted with water available for 12 to 14 h one day before the administration and were fed 4 h after the administration. Table 2. Administration information
Before and after the administration, 0.06 mL of blood was taken from the orbit of the animals under isoflurane anesthesia and placed in an EDTAK2 centrifuge tube. The blood was centrifuged at 5000 rpm and 4°C for 10 min to collect plasma. The blood collection time points for the intravenous group and intragastric group were both 0 min, 5 min, 15 min, 30 min, 1 h, 2 h, 4 h, 6 h, 8 h, and 24 h. Before analysis and detection, all samples were stored at -80°C, and the samples were quantitatively analyzed by LC-MS/MS.

[4] = Test of stability in liver microsomes; type: in vitro ADME; settings: Rat liver microsomes, 1 µM, 37°C, NADPH
Procedure: as §1, §2

integrin α4β7 = target: T1, integrin α4β7 (Homo sapiens, UniProt P13612+P26010); assay: Integrin α4β7 cell adhesion assay (RPMI8866 cells on MAdCAM-1); type: cell-based; settings: RPMI8866 cells, MAdCAM-1 coated plate; numeric value or bound; read-out: RPMI-8866 (α4β7)/MadCAM-1 IC50
T1 sequence (P13612 34-1032): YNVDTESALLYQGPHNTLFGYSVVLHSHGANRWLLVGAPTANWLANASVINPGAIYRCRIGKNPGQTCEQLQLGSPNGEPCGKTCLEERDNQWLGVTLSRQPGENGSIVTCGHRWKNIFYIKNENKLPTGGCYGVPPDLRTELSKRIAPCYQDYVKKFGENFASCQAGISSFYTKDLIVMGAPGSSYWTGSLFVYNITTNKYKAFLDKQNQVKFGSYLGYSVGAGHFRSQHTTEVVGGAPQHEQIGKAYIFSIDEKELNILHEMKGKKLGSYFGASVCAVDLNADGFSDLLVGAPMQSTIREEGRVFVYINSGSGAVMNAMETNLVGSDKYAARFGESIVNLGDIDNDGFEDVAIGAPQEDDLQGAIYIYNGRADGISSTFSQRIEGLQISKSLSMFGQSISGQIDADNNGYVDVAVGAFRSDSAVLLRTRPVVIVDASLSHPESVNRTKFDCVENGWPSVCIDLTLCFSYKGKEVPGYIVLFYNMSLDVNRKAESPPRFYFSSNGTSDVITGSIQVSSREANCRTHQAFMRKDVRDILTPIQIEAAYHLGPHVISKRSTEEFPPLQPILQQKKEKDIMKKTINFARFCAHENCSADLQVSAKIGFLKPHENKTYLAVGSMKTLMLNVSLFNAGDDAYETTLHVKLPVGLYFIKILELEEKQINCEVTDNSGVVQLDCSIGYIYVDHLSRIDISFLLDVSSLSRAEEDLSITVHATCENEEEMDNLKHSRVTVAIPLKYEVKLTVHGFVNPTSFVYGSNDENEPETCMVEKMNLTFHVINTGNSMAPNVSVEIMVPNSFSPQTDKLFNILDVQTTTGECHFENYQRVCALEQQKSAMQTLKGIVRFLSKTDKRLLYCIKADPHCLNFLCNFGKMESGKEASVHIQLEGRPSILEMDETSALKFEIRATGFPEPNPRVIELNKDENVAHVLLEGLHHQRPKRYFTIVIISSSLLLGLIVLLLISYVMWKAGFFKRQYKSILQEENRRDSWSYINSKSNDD
T1 sequence (P26010 20-798): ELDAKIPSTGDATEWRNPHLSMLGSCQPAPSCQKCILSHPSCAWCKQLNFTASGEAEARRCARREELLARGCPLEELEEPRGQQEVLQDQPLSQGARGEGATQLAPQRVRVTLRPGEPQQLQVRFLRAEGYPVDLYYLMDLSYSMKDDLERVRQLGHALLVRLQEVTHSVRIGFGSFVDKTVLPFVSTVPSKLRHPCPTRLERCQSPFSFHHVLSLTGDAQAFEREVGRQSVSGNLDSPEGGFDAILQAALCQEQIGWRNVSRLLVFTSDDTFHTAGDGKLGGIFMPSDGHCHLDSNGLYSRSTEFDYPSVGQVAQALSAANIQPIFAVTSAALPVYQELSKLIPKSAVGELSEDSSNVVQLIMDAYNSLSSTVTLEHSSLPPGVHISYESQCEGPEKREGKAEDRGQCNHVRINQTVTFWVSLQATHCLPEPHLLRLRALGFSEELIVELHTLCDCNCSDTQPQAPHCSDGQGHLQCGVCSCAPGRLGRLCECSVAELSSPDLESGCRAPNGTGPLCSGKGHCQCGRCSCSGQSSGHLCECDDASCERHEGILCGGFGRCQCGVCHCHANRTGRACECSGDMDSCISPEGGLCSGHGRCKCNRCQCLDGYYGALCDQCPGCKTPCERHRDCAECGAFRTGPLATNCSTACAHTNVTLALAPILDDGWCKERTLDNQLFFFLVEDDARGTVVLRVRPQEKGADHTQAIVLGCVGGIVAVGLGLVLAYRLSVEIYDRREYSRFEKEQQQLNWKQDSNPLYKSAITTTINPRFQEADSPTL
Procedure: MAdCAM-1 was formulated with TBS buffer to a final concentration of 2 µg/ml, 50 µl of the solution was transferred to a 96-well plate, and the plate was coated with same at 4°C overnight. The plate was washed with TBS buffer three times, then 150 µl of a blocking solution (TBS buffer containing 1% BSA) was added, and the plate was blocked at 37°C for 1 h. […] 50 µl of the cell suspension was transferred to a 96-well plate so that the cell density reached 2×10^5 cells/well. Then 1 µl of the compound at different concentrations or DMSO was added and the plate was incubated at 37°C for 1 h or 2 h. The plate was washed with TBS buffer to remove non-adherent cells. 50 µl of a substrate (4-nitrophenyl-N-acetyl-β-D-glucosaminide) was added and the plate was incubated at 37°C for 2 h. […] The IC50 value was calculated using GraphPad Prism 6 software.

Which results are given for `Cc1cc(-c2c(C)cc(F)cc2C)cc([C@H](CC(=O)O)NC(=O)[C@H](CC(C)C)n2cc(CCN(C)C)c(C(F)(F)F)cc2=O)c1F` [Control compound A]?
Test compound after 1h incubation Remaining% (T=60min) [1]: 42.6%; Test compound after 1h incubation Remaining% (T=60min) [2]: 1.8%; α4β1/α4β7 (integrin α4β1): 50.4; CL ([3]; IV: 1 mg/kg): 56.0 mL/min/kg; AUC ([3]; PO: 10 mg/kg): 830 ng·h/mL; Test compound after 1h incubation Remaining% (T=60min) [4]: 31.9%

Which results are given for `CC#Cc1cc(-c2c(C)cccc2C)c(F)c(C(CC(=O)O)NC(=O)[C@H](CC(C)C)n2cc(CCC3CCCN3C)c(C(F)(F)F)cc2=O)c1F` (stereo partly drawn) [Trifluoroacetate salt of compound 29-2]?
IC50 (integrin α4β1): > 200 nM; α4β1/α4β7 (integrin α4β1): 292; IC50 (integrin α4β7): < 1 nM

Which IC50 (integrin α4β1) does the source give for `Cc1cc(F)cc(C)c1-c1c(F)c(C(CC(=O)O)NC(=O)[C@H](CC(C)C)n2cc(CC3CN(C(C)C)C3)c(C(F)(F)F)cc2=O)c(F)c2c1CCC2` (stereo partly drawn) [Trifluoroacetate salt of compound 32-2] here?
The IC50 was over 100 nM.

And the α4β1/α4β7 (integrin α4β1)?
Its α4β1/α4β7 is 220.

What about the IC50 (integrin α4β7) of the same compound?
The IC50 was under 1 nM.

Source: patent publication EP4585587A1, “PROPIONIC ACID DERIVATIVE AND USE THEREOF IN MEDICINE” (priority 2022, dated 2024)
